Laboratory results published in paper PMC12217469 (Nature Communications, 2025).
Residues, ends and D or L forms follow the SMILES beside them. *: point of attachment. Cbz = O=C(OCc1ccccc1)*

System: H2B
Experiment: Western blotting of H2B degradation, HeLa cells
Format: cell-based

CC(C)C[C@@H](C=O)NC(=O)[C@H](CC(C)C)NC(=O)[C@H](CC(C)C)NC(=O)OCc1ccccc1 [MG132] (Cbz-Leu-Leu-Leu-aldehyde)
effect on H2B degradation by Tz-MitoFlag (100 μM, 24 h) and TP2T (10 nM, 24 h) (coincubated or pretreated with MG132 10 μM): no degradation of H2B

O=C1CCC(N2C(=O)c3ccccc3C2=O)C(=O)N1 (centres unmarked) [Thalidomide, thalidomide]
effect on H2B degradation by Tz-MitoFlag (100 μM, 24 h) and TP2T (10 nM, 24 h) (coincubated or pretreated with Thalidomide 10 μM): inhibited
